What was measured:
THP-1 cells [1] = assay: Cholesterol efflux activity in foamed THP-1 macrophage-like cells ([3H]cholesterol, apolipoprotein AI); assay type: cell-based; settings: for Cholesterol Efflux Activity (%): mean ± standard deviation
Description: THP-1 cells (purchased from ATCC; Int. J. Cancer., 26, 171-176, 1980) seeded in a 12-well plate (Falcon) at 8.0×10^5/well were treated for 3 days in RPMI-1640 medium (supplemented with 10% FBS, 25 mM HEPES and penicillin/streptomycin) containing phorbol-12-myristate-13-acetate (PMA) (final concentration: 100 nM) to allow for differentiation into macrophage-like cells. After washing with PBS, serum-free RPMI-1640 containing [^3H] cholesterol-labeled βVLDL (final cholesterol level: 150 μg/ml) was added thereto and incubated for 24 hours to prepare foamed cells. After washing twice with 0.2% BSA-containing PBS and then once with PBS, serum-free RPMI-1640 media supplemented with 0, and 20 µM D-PDMP, respectively, were added to treat for 24 and 48 hours. The supernatant was removed and RPMI-1640 medium (final concentration: 25 μg/ml) containing human apolipoprotein AI (Chemicon) was added thereto. Six hours after, the radioactivity released into the supernatant was measured in a liquid scintillation counter. The cells were further washed once with PBS and then lysed in 0.1% SDS-containing 0.1 N NaOH aqueous solution. A part of the lysate was taken up and the radioactivity was measured in a liquid scintillation counter.
The activity in efflux of cholesterol was determined by the following equation: Cholesterol efflux activity (%)=Radioactivity in supernatant/(Radioactivity in supernatant+Radioactivity in cell lysate)×100
Cells were prepared as described in (1) above. After the foamed cells prepared were washed, serum-free RPMI-1640 media containing 10 μM of glucosylceramide (Matreya, Inc.) and lactosylceramide (CALBIOCHEM), respectively, were added to treat for 24 hours. The supernatant was removed and RPMI-1640 medium (final concentration: 25 μg/ml) containing human apolipoprotein AI (Chemicon) was added thereto. Six hours after, the cholesterol efflux activity was measured by the same method as described in (1) above.

[2] = test system: human smooth muscle cells; settings: added to the culture system; Biochem. Biophys. Res. Commun., 181, 554-61, 1991; cited from earlier work
human endothelial cells = settings: added to the culture system; J. Biol. Chem., 273, 34349, 1998; cited from earlier work
THP-1 cells [3] = assay: DiI-labeled acetyl LDL (denatured lipoprotein) uptake activity in THP-1 cells, FACS; assay type: cell-based
Description: THP-1 cells (purchased from ATCC) seeded in a 6-well Low Cell Binding Plate (Nunc) at 1.5×10^6/well were treated for 2 days in RPMI-1640 medium (supplemented with 0.4% FBS, 25 mM HEPES and penicillin/streptomycin) containing phorbol-12-myristate-13-acetate (PMA) (final concentration: 100 nM) or in RPMI-1640 medium (supplemented with 0.4% FBS, 25 mM HEPES and penicillin/streptomycin) containing PMA (final concentration: 100 nM) and D-PDMP (final concentration: 20 μM). Next, the treated cells were washed with serum-free RPMI-1640 medium and then suspended in serum-free RPMI-1640 medium supplemented with DiI (1,1′-dioctadecyl-3,3,3′,3′-tetramethylindocarbocyanine)-labeled acetyl LDL (Funakoshi, final concentration: 20 μg/ml), followed by incubation at 37° C. for 90 minutes while shaking. After washing with PBS, the cells were suspended in Cellfix buffer (BD) and uptake of DiI-labeled acetyl LDL was analyzed on a FACScan (BD Bioscience). The intermediate value obtained by the FACS analysis of the cells treated with phorbol-12-myristate-13-acetate alone was made 100%, and relative values were determined under each condition.

phosphorylation of IRS-1 = settings: J. Biol. Chem., 277, 3085-3092, 2002; cited from earlier work
[4] = target: T1, glucosylceramide synthase (Homo sapiens, UniProt Q16739); settings: Glycoconjugate J., 13, 481-486, 1996; cited from earlier work
T1 sequence (Q16739 1-394): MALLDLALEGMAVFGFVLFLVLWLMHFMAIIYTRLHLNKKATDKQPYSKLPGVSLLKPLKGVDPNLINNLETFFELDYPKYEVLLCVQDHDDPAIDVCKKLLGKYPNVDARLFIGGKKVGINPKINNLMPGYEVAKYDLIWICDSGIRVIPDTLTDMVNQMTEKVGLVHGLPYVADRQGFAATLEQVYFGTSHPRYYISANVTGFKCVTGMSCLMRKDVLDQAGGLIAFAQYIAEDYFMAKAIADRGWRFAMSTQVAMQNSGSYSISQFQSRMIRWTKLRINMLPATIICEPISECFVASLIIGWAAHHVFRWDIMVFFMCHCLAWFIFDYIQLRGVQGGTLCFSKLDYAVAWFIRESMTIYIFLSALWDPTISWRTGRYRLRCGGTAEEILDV

[5] = test system: lactosylceramide synthase; settings: Glycoconjugate J., 13, 481-486, 1996; cited from earlier work
cells = settings: J. Biochem. (Tokyo), 117, 766-773, 1995; cited from earlier work
[6] = target: T1, glucosylceramide synthase; assay: Glucosylceramide synthase enzyme assay ([14C]UDP-glucose, C8 ceramide, lysate of transfected HEK293 cells); assay type: biochemical; set-up: made in house; host or cells: HEK293 cells, transiently transfected with pcDNA3.1(-) vector; M-PER lysate, soluble fraction after 27,000 x g; settings: calculated using SAS Preclinical Package, ver. 5
Description: Human glucosylceramide synthase gene was obtained from IMAGE clone 5274768 (Invitrogen). The reaction solution for the reaction was composed of 2 μl of plasmid DNA of IMAGE clone 5274768, 5 μl of 10×Pfu buffer (Stratagene), 1 μl of Hotstart Pfu (Stratagene), 1 μl each of 20 μM primers and 4 μl of 2.5 mM dNTP, to which 36 μl of distilled water was added to make the volume […]. After 2 minutes at 95° C., PCR was carried out by repeating 30 cycles, one set to include 95° C. for 30 seconds, 60° C. for 30 seconds and 72° C. for 2 minutes, followed by an extension at 72° C. for 10 minutes. […]
HEK293 cells (purchased from ATCC; J. Gen. Virol., 36, 59-74, 1977) were cultured in serum-containing DMEM medium and seeded in a 10 cm collagen coated plate (Iwaki Co.) at 1.2×10^6 on the previous day of gene transfer. […] Then, the chloroform layer was collected and the radioactivity was measured in a liquid scintillation counter. The activity value was determined by the following equation: Glucosylceramide synthase activity (%)=Radioactivity of the enzyme reaction product (cpm)/Specific radioactivity of [^14C]UDP-glucose (cpm/nmol)×1/amount of protein (mg)·reaction time (hr)
D-PDMP known to inhibit the glucosylceramide synthase activity was examined using the procedure described above. The IC50 was calculated using SAS Preclinical Package, ver. […]

[7] = exogenously added to the culture system, summary of TABLES 2 and 3

## Lactosylceramide
THP-1 cells [1]; Lactosylceramide 10 μM, 24 hours, 0 μM control 4.3 ± 0.2
  Cholesterol Efflux Activity (%): 2.3 ± 0.2%
THP-1 cells [1]; [7]
  Effect on cholesterol efflux activity (in words): suppressed
[2]
  Proliferation activity: the proliferation activity is increased
Human endothelial cells
  Expression of cell adhesion molecules such as ICAM-1: is increased in human endothelial cells

## CCCCCCCCCC(=O)N[C@H](CN1CCOCC1)[C@H](O)c1ccccc1 [D-PDMP, D-threo-1-phenyl-2-decanoylamino-3-morpholino-1-propanol]
THP-1 cells [1]; D-PDMP 10 μM, 24 hrs. treatment, 0 μM control 1.7 ± 0.3
  Cholesterol Efflux Activity (%): 4.4 ± 0.4%
THP-1 cells [1]; D-PDMP 10 μM, 48 hrs. treatment, 0 μM control 2.1 ± 0.2
  Cholesterol Efflux Activity (%): 6.0 ± 0.4%
THP-1 cells [1]; D-PDMP 20 μM, 24 hrs. treatment, 0 μM control 1.7 ± 0.3
  Cholesterol Efflux Activity (%): 4.3 ± 0.8%
THP-1 cells [1]; D-PDMP 20 μM, 48 hrs. treatment, 0 μM control 2.1 ± 0.2
  Cholesterol Efflux Activity (%): 6.8 ± 0.5%
THP-1 cells [1]; summary of TABLE 1
  Effect on cholesterol efflux activity (in words): increased the cholesterol efflux activity concentration- and time-dependently
THP-1 cells [3]; D-PDMP 20 μM with PMA 100 nM, 2 days, relative to PMA alone = 100%, mean ± standard deviation
  Acetyl LDL Uptake Activity (%): 28.9 ± 6.3^ %
THP-1 cells [3]; summary of TABLE 4
  Effect on acetyl LDL uptake activity (in words): suppressed the acetyl LDL uptake activity
Phosphorylation of IRS-1
  Effect on the action of TNF-α that inhibits phosphorylation of IRS-1: suppresses the action of TNF-α that inhibits phosphorylation of IRS-1
[4]
  Inhibition of glucosylceramide synthase activity (in words): known to inhibit the activities
[5]
  Inhibition of lactosylceramide synthase activity (in words): known to inhibit the activities
cells
  Depletion of glucosylceramide and lactosylceramide in cells (in words): deplete glucosylceramide and lactosylceramide in cells in a concentration- and treating time-dependent manner
[6]
  IC50: 1500 nM

## Glucosylceramide
THP-1 cells [1]; Glucosylceramide 10 μM, 24 hours, 0 μM control 3.6 ± 0.1
  Cholesterol Efflux Activity (%): 3.2 ± 0.2%
THP-1 cells [1]; [7]
  Effect on cholesterol efflux activity (in words): suppressed

— patent US20070248591A1, “Preventive/Therapeutic Drug for Arteriosclerosis” (TAKEDA PHARMACEUTICAL COMPANY LIMITED, priority 2004, published 2007)
